Test results from ChEMBL document CHEMBL5528031, “Synthesis and antitumor activity of cyclopentane-fused anthraquinone derivatives” (Eur J Med Chem, 2024).
In brackets after ≈: the same amount, converted by molar mass.

Test system: CAPAN-1
Experiment: Antiproliferative activity against human CAPAN-1 cells assessed as inhibition of cell growth incubated for 72 hrs by MTT assay
Assay type: functional, cell-based
Conditions: CAPAN-1, 72 h

In order of falling IC50:
1. CN1CCN(C(=O)C2Cc3c(O)c4c(c(O)c3C2)C(=O)c2ccccc2C4=O)CC1  35.2 µM
2. O=C1c2ccccc2C(=O)c2c(O)c3c(c(O)c21)CC(C(=O)NC1CN2CCC1CC2)C3 (configuration not stated)  1.8 µM
3. O=C1c2ccccc2C(=O)c2c(O)c3c(c(O)c21)CC(C(=O)NC1CNC1)C3  1.5 µM
4. O=C1c2ccccc2C(=O)c2c(O)c3c(c(O)c21)CC(C(=O)N1CCNCC1)C3  1.4 µM
5. N[C@@H]1CCN(C(=O)C2Cc3c(O)c4c(c(O)c3C2)C(=O)c2ccccc2C4=O)C1  1.1 µM

Test system: HCT-116
Experiment: Antiproliferative activity against human HCT-116 cells assessed as inhibition of cell growth incubated for 72 hrs by MTT assay
Assay type: functional, cell-based
Conditions: HCT-116, 72 h

In order of rising IC50:
1. N[C@@H]1CCN(C(=O)C2Cc3c(O)c4c(c(O)c3C2)C(=O)c2ccccc2C4=O)C1  1.1 µM
2. O=C1c2ccccc2C(=O)c2c(O)c3c(c(O)c21)CC(C(=O)N1CCNCC1)C3  1.3 µM
3. O=C1c2ccccc2C(=O)c2c(O)c3c(c(O)c21)CC(C(=O)NC1CNC1)C3  1.4 µM
4. O=C1c2ccccc2C(=O)c2c(O)c3c(c(O)c21)CC(C(=O)NC1CN2CCC1CC2)C3 (configuration not stated)  1.5 µM
5. CN1CCN(C(=O)C2Cc3c(O)c4c(c(O)c3C2)C(=O)c2ccccc2C4=O)CC1  24.3 µM

Test system: LN-229
Experiment: Antiproliferative activity against human LN-229 cells assessed as inhibition of cell growth incubated for 72 hrs by MTT assay
Assay type: functional, cell-based
Conditions: LN-229, 72 h

In order of rising IC50:
1. O=C1c2ccccc2C(=O)c2c(O)c3c(c(O)c21)CC(C(=O)NC1CN2CCC1CC2)C3 (configuration not stated)  1.9 µM
2. N[C@@H]1CCN(C(=O)C2Cc3c(O)c4c(c(O)c3C2)C(=O)c2ccccc2C4=O)C1  2 µM
3. O=C1c2ccccc2C(=O)c2c(O)c3c(c(O)c21)CC(C(=O)NC1CNC1)C3  2.9 µM
4. O=C1c2ccccc2C(=O)c2c(O)c3c(c(O)c21)CC(C(=O)N1CCNCC1)C3  5 µM
5. CN1CCN(C(=O)C2Cc3c(O)c4c(c(O)c3C2)C(=O)c2ccccc2C4=O)CC1  35 µM

Test system: NCI-H1975
Experiment: Antiproliferative activity against human NCI-H1975 cells assessed as inhibition of cell growth incubated for 72 hrs by MTT assay
Assay type: functional, cell-based
Conditions: NCI-H1975, 72 h

In order of falling IC50:
1. CN1CCN(C(=O)C2Cc3c(O)c4c(c(O)c3C2)C(=O)c2ccccc2C4=O)CC1  18.1 µM
2. O=C1c2ccccc2C(=O)c2c(O)c3c(c(O)c21)CC(C(=O)N1CCNCC1)C3  8.8 µM
3. O=C1c2ccccc2C(=O)c2c(O)c3c(c(O)c21)CC(C(=O)NC1CN2CCC1CC2)C3 (configuration not stated)  6.2 µM
4. O=C1c2ccccc2C(=O)c2c(O)c3c(c(O)c21)CC(C(=O)NC1CNC1)C3  2.7 µM
5. N[C@@H]1CCN(C(=O)C2Cc3c(O)c4c(c(O)c3C2)C(=O)c2ccccc2C4=O)C1  1.2 µM

Test system: Z-138
Experiment: Antiproliferative activity against human Z138 cells assessed as inhibition of cell growth incubated for 72 hrs by MTT assay
Assay type: functional, cell-based
Conditions: Z-138, 72 h

In order of rising IC50:
1. O=C1c2ccccc2C(=O)c2c(O)c3c(c(O)c21)CC(C(=O)N1CCNCC1)C3  2.1 µM
2. N[C@@H]1CCN(C(=O)C2Cc3c(O)c4c(c(O)c3C2)C(=O)c2ccccc2C4=O)C1  2.5 µM
3. O=C1c2ccccc2C(=O)c2c(O)c3c(c(O)c21)CC(C(=O)NC1CN2CCC1CC2)C3 (configuration not stated)  2.7 µM
4. O=C1c2ccccc2C(=O)c2c(O)c3c(c(O)c21)CC(C(=O)NC1CNC1)C3  2.8 µM
5. CN1CCN(C(=O)C2Cc3c(O)c4c(c(O)c3C2)C(=O)c2ccccc2C4=O)CC1  36.2 µM

Test system: not listed separately
Experiment: Antiproliferative activity against human DND41 cells assessed as inhibition of cell growth incubated for 72 hrs by MTT assay
Assay type: functional, cell-based
Conditions: DND41, 72 h

In order of falling IC50:
1. CN1CCN(C(=O)C2Cc3c(O)c4c(c(O)c3C2)C(=O)c2ccccc2C4=O)CC1  10.1 µM
2. O=C1c2ccccc2C(=O)c2c(O)c3c(c(O)c21)CC(C(=O)NC1CNC1)C3  3.1 µM
3. N[C@@H]1CCN(C(=O)C2Cc3c(O)c4c(c(O)c3C2)C(=O)c2ccccc2C4=O)C1  2.3 µM
4. O=C1c2ccccc2C(=O)c2c(O)c3c(c(O)c21)CC(C(=O)NC1CN2CCC1CC2)C3 (configuration not stated)  2.2 µM
5. O=C1c2ccccc2C(=O)c2c(O)c3c(c(O)c21)CC(C(=O)N1CCNCC1)C3  1.7 µM

Test system: HL-60
Experiment: Antiproliferative activity against human HL-60 cells assessed as inhibition of cell growth incubated for 72 hrs by MTT assay
Assay type: functional, cell-based
Conditions: HL-60, 72 h

O=C1c2ccccc2C(=O)c2c(O)c3c(c(O)c21)CC(C(=O)NC1CNC1)C3 and O=C1c2ccccc2C(=O)c2c(O)c3c(c(O)c21)CC(C(=O)NC1CN2CCC1CC2)C3 (configuration not stated) are within 1.5-fold of each other in IC50: 2.7 µM for the first, 2.1 µM for the second.

First: CN1CCN(C(=O)C2Cc3c(O)c4c(c(O)c3C2)C(=O)c2ccccc2C4=O)CC1
Second: O=C1c2ccccc2C(=O)c2c(O)c3c(c(O)c21)CC(C(=O)N1CCNCC1)C3
The IC50 of the first is higher: greater than 50 µM for the first, 1.2 µM for the second.

N[C@@H]1CCN(C(=O)C2Cc3c(O)c4c(c(O)c3C2)C(=O)c2ccccc2C4=O)C1 showed an IC50 of 2 µM.

Test system: K562
Experiment: Antiproliferative activity against human K562 cells assessed as inhibition of cell growth incubated for 72 hrs by MTT assay
Assay type: functional, cell-based
Conditions: K562, 72 h

Going from O=C1c2ccccc2C(=O)c2c(O)c3c(c(O)c21)CC(C(=O)NC1CNC1)C3 to O=C1c2ccccc2C(=O)c2c(O)c3c(c(O)c21)CC(C(=O)NC1CN2CCC1CC2)C3 (configuration not stated), the IC50 falls from 2.7 µM to 1.6 µM (1.7-fold).

Compared with CN1CCN(C(=O)C2Cc3c(O)c4c(c(O)c3C2)C(=O)c2ccccc2C4=O)CC1, O=C1c2ccccc2C(=O)c2c(O)c3c(c(O)c21)CC(C(=O)N1CCNCC1)C3 is lower in IC50: greater than 50 µM for the first, 1.3 µM for the second. The second is the more potent here.

Molecule N[C@@H]1CCN(C(=O)C2Cc3c(O)c4c(c(O)c3C2)C(=O)c2ccccc2C4=O)C1 has an IC50 of 2 µM.

Test system: not listed separately
Experiment: Antiproliferative activity against multidrug resistant human K562/4 cells expressing P-gp assessed as inhibition of cell growth incubated for 72 hrs by MTT assay
Assay type: functional, cell-based
Conditions: K562/4, 72 h

Going from O=C1c2ccccc2C(=O)c2c(O)c3c(c(O)c21)CC(C(=O)NC1CNC1)C3 to O=C1c2ccccc2C(=O)c2c(O)c3c(c(O)c21)CC(C(=O)NC1CN2CCC1CC2)C3 (configuration not stated), the IC50 falls from 33 µM to 4.1 µM (8-fold). The second is the more potent here.

First: CN1CCN(C(=O)C2Cc3c(O)c4c(c(O)c3C2)C(=O)c2ccccc2C4=O)CC1
Second: O=C1c2ccccc2C(=O)c2c(O)c3c(c(O)c21)CC(C(=O)N1CCNCC1)C3
The IC50 of the first is higher: greater than 50 µM for the first, 2.2 µM for the second. The second is the more potent here.

N[C@@H]1CCN(C(=O)C2Cc3c(O)c4c(c(O)c3C2)C(=O)c2ccccc2C4=O)C1 gave an IC50 of 2.1 µM.

Test system: not listed separately
Experiment: Cytotoxicity against hFB-hTERT6 cells assessed as inhibition of cell growth incubated for 72 hrs by MTT assay
Assay type: toxicity, cell-based
Conditions: human

Compared with O=C1c2ccccc2C(=O)c2c(O)c3c(c(O)c21)CC(C(=O)NC1CNC1)C3, O=C1c2ccccc2C(=O)c2c(O)c3c(c(O)c21)CC(C(=O)NC1CN2CCC1CC2)C3 (configuration not stated) is 1.8-fold lower in IC50 at 72 h: 4.3 µM for the first, 2.4 µM for the second.

First: CN1CCN(C(=O)C2Cc3c(O)c4c(c(O)c3C2)C(=O)c2ccccc2C4=O)CC1
Second: O=C1c2ccccc2C(=O)c2c(O)c3c(c(O)c21)CC(C(=O)N1CCNCC1)C3
The IC50 at 72 h of the first is higher: greater than 50 µM for the first, 4 µM for the second.

N[C@@H]1CCN(C(=O)C2Cc3c(O)c4c(c(O)c3C2)C(=O)c2ccccc2C4=O)C1 showed an IC50 at 72 h of 4.7 µM.

Test system: not listed separately
Experiment: Solubility of compound in deionized water at pH 6
Assay type: physicochemical
Conditions: not given

In order of falling solubility:
1. O=C1c2ccccc2C(=O)c2c(O)c3c(c(O)c21)CC(C(=O)N1CCNCC1)C3  46 mg/mL (≈ 117 mM)
2. CN1CCN(C(=O)C2Cc3c(O)c4c(c(O)c3C2)C(=O)c2ccccc2C4=O)CC1  ~1.7 mg/mL (≈ 4.18 mM)
